Measurements published in PMC6627609, “Targeting Quorum Sensing: High-Throughput Screening to Identify Novel LsrK Inhibitors” (International Journal of Molecular Sciences, 2019).
Structures can show the parent of a compound that is named as a salt.

Target: LsrK (Salmonella typhimurium, UniProt Q8ZKQ6)
Assay: biochemical
Type: biochemical, S. typhimurium
Details: for Inhibition (%): 50 µM

LsrK, sequence (Q8ZKQ6 whole entry): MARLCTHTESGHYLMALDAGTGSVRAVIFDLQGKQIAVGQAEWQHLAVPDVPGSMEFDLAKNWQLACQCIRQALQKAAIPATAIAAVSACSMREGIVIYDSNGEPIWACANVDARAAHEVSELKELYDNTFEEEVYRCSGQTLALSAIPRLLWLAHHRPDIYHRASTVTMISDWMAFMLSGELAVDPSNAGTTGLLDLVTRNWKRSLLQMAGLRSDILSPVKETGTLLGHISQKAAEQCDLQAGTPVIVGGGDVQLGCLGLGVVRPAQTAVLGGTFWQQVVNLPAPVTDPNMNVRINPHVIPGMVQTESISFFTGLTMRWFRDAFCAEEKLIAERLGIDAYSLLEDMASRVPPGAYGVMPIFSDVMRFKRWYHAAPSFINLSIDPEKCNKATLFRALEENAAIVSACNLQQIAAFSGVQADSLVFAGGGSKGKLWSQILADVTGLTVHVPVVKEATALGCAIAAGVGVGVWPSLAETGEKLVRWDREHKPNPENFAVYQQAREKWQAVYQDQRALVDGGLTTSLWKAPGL

NCCC(=O)N[C@@H](Cc1cnc[nH]1)C(=O)O [CARNOSINE]
inhibition at 50 µM: 0%

CC(C(=O)O)c1ccc2c(c1)[nH]c1ccc(Cl)cc12 (stereo not shown) [CARPROFEN]
inhibition at 50 µM: 1%

C[C@@H]1CC[C@H]2C(C)(C)[C@H]3C[C@@]12CC[C@@]3(C)O [CEDROL]
inhibition at 50 µM: 13%

N[C@@H](C(=O)N[C@@H]1C(=O)N2C(C(=O)O)=C(Cl)CS[C@H]12)c1ccccc1 [CEFACLOR]
inhibition at 50 µM: 24%

CC1=C(C(=O)O)N2C(=O)[C@@H](NC(=O)[C@H](N)c3ccc(O)cc3)[C@H]2SC1 [CEFADROXIL]
inhibition at 50 µM: 1%

Cn1nnnc1SCC1=C(C(=O)O)N2C(=O)[C@@H](NC(=O)[C@H](OC=O)c3ccccc3)[C@H]2SC1 [CEFAMANDOLE NAFATE]
inhibition at 50 µM: 1%

Cn1nnnc1SCC1=C(C(=O)O)N2C(=O)[C@@H](NC(=O)[C@H](O)c3ccccc3)[C@H]2SC1 [CEFAMANDOLE SODIUM]
inhibition at 50 µM: 15%

Cc1nnc(SCC2=C(C(=O)O)N3C(=O)[C@@H](NC(=O)Cn4cnnn4)[C@H]3SC2)s1 [CEFAZOLIN SODIUM]
inhibition at 50 µM: 1%

CO/N=C(\C(=O)N[C@@H]1C(=O)N2C(C(=O)OCOC(=O)C(C)(C)C)=C(/C=C\c3scnc3C)CS[C@H]12)c1csc(N)n1 [CEFDITORIN PIVOXIL]
Inhibition (%): 2

O=C([O-])C1=C(CSc2nnnn2CS(=O)(=O)[O-])CS[C@@H]2[C@H](NC(=O)[C@H](O)c3ccccc3)C(=O)N12.[Na+].[Na+] [CEFONICID SODIUM]
Inhibition (%): 0

CCN1CCN(C(=O)N[C@@H](C(=O)N[C@@H]2C(=O)N3C(C(=O)O)=C(CSc4nnnn4C)CS[C@H]23)c2ccc(O)cc2)C(=O)C1=O [CEFOPERAZONE SODIUM]
inhibition at 50 µM: 0%

CO/N=C(\C(=O)N[C@@H]1C(=O)N2C(C(=O)O)=C(COC(C)=O)CS[C@H]12)c1csc(N)n1 [CEFOTAXIME SODIUM]
inhibition at 50 µM: 32%

CO[C@@]1(NC(=O)Cc2cccs2)C(=O)N2C(C(=O)O)=C(COC(N)=O)CS[C@@H]21 [CEFOXITIN SODIUM]
inhibition at 50 µM: 3%

COCC1=C(C(=O)OC(C)OC(=O)OC(C)C)N2C(=O)[C@@H](NC(=O)/C(=N\OC)c3csc(N)n3)[C@H]2SC1 (stereo partly shown) [CEFPODOXIME PROXETIL]
inhibition at 50 µM: 24%

CC(C)(O/N=C(\C(=O)N[C@@H]1C(=O)N2C(C(=O)[O-])=C(C[n+]3ccccc3)CS[C@H]12)c1csc(N)n1)C(=O)O [CEFTAZIDIME]
inhibition at 50 µM: 70%

Nc1nc(/C(=C/CC(=O)O)C(=O)N[C@@H]2C(=O)N3C(C(=O)O)=CCS[C@H]23)cs1 [CEFTIBUTEN]
inhibition at 50 µM: 105%

CO/N=C(/C(=O)N[C@@H]1C(=O)N2C(C(=O)[O-])=C(CSc3nc(=O)c([O-])nn3C)CS[C@H]12)c1csc(N)n1.O.O.O.[Na+].[Na+] [CEFTRIAXONE SODIUM TRIHYDRATE]
Inhibition (%): 0

CO/N=C(\C(=O)N[C@@H]1C(=O)N2C(C(=O)OC(C)OC(C)=O)=C(COC(N)=O)CS[C@H]12)c1ccco1 (stereo partly shown) [CEFUROXIME AXETIL]
inhibition at 50 µM: 2%

CO/N=C(\C(=O)N[C@@H]1C(=O)N2C(C(=O)O)=C(COC(N)=O)CS[C@H]12)c1ccco1 [CEFUROXIME SODIUM]
inhibition at 50 µM: 3%

Cc1ccc(-c2cc(C(F)(F)F)nn2-c2ccc(S(N)(=O)=O)cc2)cc1 [CELECOXIB]
inhibition at 50 µM: 1%

OC[C@H]1O[C@@H](O[C@H]2[C@H](O)[C@@H](O)[C@H](O)O[C@@H]2CO)[C@H](O)[C@@H](O)[C@@H]1O [CELLOBIOSE (D[+])]
Inhibition (%): 0

CC(=O)OCC1=C(C(=O)[O-])N2C(=O)[C@@H](NC(=O)CCCC(N)C(=O)O)[C@H]2SC1.[Na+] (stereo partly shown) [CEPHALOSPORIN C SODIUM]
Inhibition (%): 32

CC(=O)OCC1=C(C(=O)O)N2C(=O)[C@@H](NC(=O)Cc3cccs3)[C@H]2SC1 [CEPHALOTHIN SODIUM]
inhibition at 50 µM: 1%

O=C(O)COCCN1CCN(C(c2ccccc2)c2ccc(Cl)cc2)CC1 (stereo not shown) [CETIRIZINE HYDROCHLORIDE]
inhibition at 50 µM: 1%

CCCCCCCCCCCCCCCC[N+](C)(C)C [CETRIMONIUM BROMIDE]
inhibition at 50 µM: 125%
